# Assay results from patent US7169568B2, “Method for screening molecules that exert a neurotrophic effect through activation of neurotrophin receptors” (New York University, priority 2000, dated 2007).
# Columns and labels:
# [1] = tested on: TrkB receptors; experiment: Trk receptor phosphorylation in primary E17 hippocampal neurons (immunoprecipitation, anti-phosphotyrosine Western blot); format: cell-based, rat; conditions: 10 nM, two hours
# Procedure: FIGS. 4A and 4B show Western blots on adenosine activation of Trk receptors in hippocampal neurons. Primary cultures of E17 hippocampal neurons were prepared as described in the Materials and Methods of Example 1 and treated with (FIG. 4A) CGS 21680 (10 nM) or BDNF (1 ng/ml) for various times and (FIG. 4B) either adenosine (10 μM), CGS 21680 (10 nM), CPA (10 nM) or BDNF (10 ng/ml) for 2 hr. Activation of TrkA receptors was assessed by immunoprecipitation and Western blotting with anti-phosphotyrosine antibody.
# (§1) Immunoprotection and Immunoblotting. PC12 cells or PC12-615 cells (Hempstead et al, 1992), were maintained in Dulbecco's Modified Eagle's Medium (DMEM) containing 10% fetal bovine serum (FBS) supplemented with 100 units/ml penicillin, 100 μg/ml streptomycin, and 2 mM glutamine plus 200 μg/ml G418. Cells were placed in low serum medium (1% FBS, 0.5% horse serum) overnight prior to experiments. Cell lysates from PC12, 615 cells, or hippocampal cells were incubated in lysis buffer (1% NP40) for 4 hours to overnight at 4° C. with anti-pan-Trk polyclonal antibody, followed by incubation with protein A-Sepharose beads. Equivalent amounts of protein were analyzed for each condition. The beads' were washed five times with lysis buffer and the immune complexes were boiled in SDS-sample buffer and loaded on sodium dodecyl sulfate-polyacrylamide electrophoresis (SDS-PAGE) gels for immunoblot analysis. The immunoreactive protein bands were detected by ECL reagents based upon enhanced chemiluminescence procedure (Amersham Pharmacia).
# Hippocampal Cell Cultures. Dissociated primary cultures of hippocampal neurons from embryonic day 17 (E17) rats were prepared from timed-pregnant Sprague-Dawley rats as described previously (Aibel et al, 1998). Fetuses were removed under sterile conditions and kept in PBS on ice for microscopic dissection of the hippocampus. The meninges were removed and the tissue was placed in Neurobasal media (Gibco BRL). […] Cells were counted and then plated on culture wells coated with 0.01 mg/ml poly-D-lysine overnight. […]
# [2] = tested on: TrkA receptors; experiment: TrkA receptor tyrosine phosphorylation in PC12 (615) cells (anti-pan-Trk immunoprecipitation, PY99 anti-phosphotyrosine immunoblot); format: cell-based
# Procedure: Stably transfected PC12 cells expressing high levels of TrkA (615) were treated with the indicated compounds for 2 hours. The cells were subsequently harvested in lysis buffer as described in the Materials and Methods of Example 1. Lysates were immunoprecipitated with anti-pan Trk rabbit antiserum. Immunocomplexes were analyzed by immunoblotting with anti-phosphotyrosine antibody (PY99).
# In FIG. 2A, different concentrations of adenosine were administered to PC12615 cells for 2 hours or NGF (1 ng/ ml) for 10 min. Cells were also treated with CGS21680 at the indicated dose for 2 hours. In FIG. 2B, PC12 cells (615) were treated with adenosine (10 μM) for various times or with 5 ng/ml NGF for 10 min. Phosphorylated TrkA receptors were detected by immunoblot analysis using PY99 anti-phosphotyrosine antibodies. The amount of Trk receptors in each condition was verified by immunoblotting.
# In FIG. 3A, PC12 cells (615) were treated with the A2A agonist CGS 21680 (10 nM) and an A1 agonist CPA (10 nM) for 2 hr. ZM 241385 (10 nM), an A2A antagonist, was incubated with the cells for 15 min prior to treatment with adenosine (10 μM) for 2 hours. In FIG. 3B, PC12 cells (615) were incubated with the indicated concentrations of PP1, a Src family kinase inhibitor (Hanke et al, 1996), for 30 min, and then treated with adenosine (10 μM) for 2 hours. Activation of TrkA was assessed by immunoprecipitation and immunoblot analysis using PY99 anti-phosphotyrosine antibody.
# In FIG. 7A, different concentrations of PACAP27 were administered to PC12 (615) cells for 2 hours or NGF (5 ng/ml) for 10 min. […] Phosphorylated TrkA receptors were detected by immunoblot analysis using PY99 anti-phosphotyrosine antibodies. The level of Trk receptors for each condition was verified by immunoblotting with anti-Trk antibodies.
# as §1
# Immunoprecipitated and Immunoblotting. PC12 (615) cells were maintained in DMEM containing 10% FBS supplemented with 100 units/ml penicillin, 100 μg/ml streptomycin, and 2 mM glutamine plus 200 μg/ml G418. Cells were placed in serum free medium overnight before experiments. Cell lysates from PC12(615) cells, or basal forebrain cells were incubated in lysis buffer (1% Nonidet P-40) for 4 hrs to overnight at 4° C. with anti-pan-Trk polyclonal antibody followed by incubation with protein A-Sepharose beads. Equivalent amounts of protein were analyzed for each condition.
# [3] = tested on: hippocampal neurons; experiment: Cell death assay (LDH release), hippocampal neurons after B27 withdrawal; format: cell-based, rat; conditions: 100 nM, with CGS 21680 (10 nM) upon B27 withdrawal
# Procedure: (§2) . In FIG. 6A, NGF-differentiated PC12 cells were prepared and then NGF and serum were withdrawn for 48 hours as described in the Materials and Methods section of Example 1. Upon NGF withdrawal, various concentrations of CGS 21680 (CGS) were added to the media. CON =No Addition. […] In FIG. 6B, hippocampal neurons were prepared and B27 was withdrawn for 48 hrs as described in the Materials and Methods section of Example 1. Upon B27 withdrawal, various concentrations of CGS 21680 (CGS) were added to the media. […] All LDH levels were quantitated and % cell death calculated as described in the Materials and Methods section of Example 1. All bars depict mean+SEM from three independent experiments.
# Hippocampal Cell Cultures. Dissociated primary cultures of hippocampal neurons from embryonic day 17 (E17) rats were prepared from timed-pregnant Sprague-Dawley rats as described previously (Aibel et al, 1998). Fetuses were removed under sterile conditions and kept in PBS on ice for microscopic dissection of the hippocampus. The meninges were removed and the tissue was placed in Neurobasal media (Gibco BRL). The tissue was briefly minced with fine forceps and then triturated with a fire polished pasteur pipet. Cells were counted and then plated on culture wells coated with 0.01 mg/ml poly-D-lysine overnight. Hippocampal cells were maintained in Neurobasal media, containing B27 supplement and L-glutamine (0.5 mM). Experiments were conducted 7–10 days after plating.
# Hippocampal neurons were maintained in Neurobasal media containing B27 supplement and 0.5 mM L-glutamine for 10 days. B27 was then removed, and adenosine agonists or BDNF (100 ng/ml) was added to the media. MK-801 (1 μM) was added to all conditions, to decrease the contribution of NMDA-mediated cell death. After 48 hrs, cell death was assessed by measurement of LDH released into media.
# [4] = tested on: Akt; experiment: Akt activation in PC12 cells (anti-phospho Akt immunoblot); format: cell-based
# Procedure: as §1, with “PC12 cells (615) were treated with adenosine (10 μM) for various times in the presence or absence of […] (100 nM) or LY294002 (10 μM). The cells were subsequently harvested in lysis buffer; lysates and immunoprecipitated samples were subsequently immunoblotted with anti-phospho MAP kinase, anti-phospho Akt, and anti-phosphotyrosine. Reprobing with anti-MAP kinase and anti-pan-Trk antibodies was carried out to ensure equal protein loading. To assess the activity of Akt, endogenous Akt can be immunoprecipitated from lysates with anti-Akt and the proteins assayed in Western blots with anti-phospho-Akt antibodies. Use of the anti-Akt antibody versus the anti-phospho-Akt antibody on lysates can give a comparative assessment of the relative level of the enzyme and extent of activation (Kim et al., 2001). […]” for “Immunoprotection”
# [5] = tested on: MAP kinase; experiment: MAP kinase activation in PC12 cells (anti-phospho MAP kinase immunoblot); format: cell-based; conditions: K252a at concentrations that block TrkA signaling (100 nM)
# Procedure: as §1, with “PC12 cells (615) were treated with adenosine (10 μM) for various times in the presence or absence of […] (100 nM) or LY294002 (10 μM). The cells were subsequently harvested in lysis buffer; lysates and immunoprecipitated samples were subsequently immunoblotted with anti-phospho MAP kinase, anti-phospho Akt, and anti-phosphotyrosine. Reprobing with anti-MAP kinase and anti-pan-Trk antibodies was carried out to ensure equal protein loading. Immunoprotection” for “Immunoprotection”, “The beads' were washed five times with lysis buffer and the immune complexes were boiled in SDS-sample buffer and loaded on sodium dodecyl sulfate-polyacrylamide electrophoresis (SDS-PAGE) gels for immunoblot analysis.” left out
# [6] = tested on: NGF-differentiated PC12 cells; experiment: Cell death assay (LDH release), NGF-differentiated PC12 cells after NGF and serum withdrawal; format: cell-based
# Procedure: as §2, with “FIGS. 6A and 6B show graphs on the trophic effects of adenosine in PC12 and hippocampal cells deprived of neurotrophins. In” for “. In”
# Cell Death Assay. PC12 cells were differentiated in Dulbecco's modified Eagle's medium (DMEM), supplemented with 0.33% fetal bovine serum, 0.67% heat-inactivated horse serum, 2 mM L-glutamine and NGF (50 ng/ml) for 7 days. Serum and NGF were then removed, and adenosine agonists or growth factors added to the media. After 48 hrs, cell death was quantified by measuring lactate dehydrogenase (LDH) released from injured cells into the media using the Cytox 96 Cytotoxicity Assay Kit (Promega, Madison, Wis.). LDH values were normalized by subtracting the LDH released by cells maintained in NGF (50 ng/ml) and scaling to a full kill (=100%) reference induced by 5 min treatment with 1% Triton, an exposure that consistently killed all PC12 cells.
molecule,measurement,setting,value
"OC[C@H]1O[C@@H](n2cnc3c(NC4CCCC4)ncnc32)[C@H](O)[C@@H]1O [CPA, N(6)-cyclopentyladenosine]",Phosphorylation of TrkB receptors,[1],did not activate TrkB receptors
same,Increase in phosphorylated TrkA receptors,"[2]; PC12 (615) cells, 10 nM, 2 hr",no effect
COC(=O)[C@@]1(O)C[C@H]2O[C@]1(C)n1c3ccccc3c3c4c(c5c6ccccc6n2c5c31)C(=O)NC4 [K252a],Effect on survival action of CGS 21680,[3],K-252a sensitive
same,Effect on Akt activation by adenosine,[4]; pretreatment 100 nM,eliminated
same,Effect on MAP kinase activity induced by adenosine,[5],not altered
same,Effect on survival effect of CGS 21680,"[6]; 100 nM, with CGS 21680 (10 nM) upon NGF withdrawal",eliminated the positive effects of CGS 21680
same,Effect on survival effects of NGF,"[6]; 100 nM, with NGF (50 ng/ml)",reversed the survival effects of NGF
COc1cccc(-c2cc(=O)c3ccccc3o2)c1N [PD98059],Effect on survival imparted by CGS 21680,"[6]; 25 μM, with CGS 21680 (10 nM)",not found to have any effect
Cc1ccc(-c2nn(C(C)(C)C)c3ncnc(N)c23)cc1 [PP1],Effect on level of tyrosine phosphorylated TrkA receptors elicited by adenosine,"[2]; 1 μM, 30 min, then adenosine (10 μM) for 2 hours",marked decrease
same,"Effect on tyrosine phosphorylated TrkA receptors elicited by adenosine, concentration dependence","[2]; increasing concentrations, then adenosine (10 μM) for 2 hours",progressively stronger inhibition
"Nc1nc(NCCc2ccc(O)cc2)nc2nc(-c3ccco3)nn12 [ZM 241385, 4-[2-[7-amino-2-(2-furyl)-1,2,4-triazolo[1,5-a](1,3,5)triazin-5-ylamino]ethyl]phenol]",Effect on adenosine-induced phosphorylation of TrkA receptors,"[2]; 10 nM, 15 min prior to adenosine (10 μM) for 2 hours",antagonized the effects of adenosine
CN1CCc2cccc3c2[C@H]1Cc1ccc(O)c(O)c1-3 [apomorphine],Activation of TrkA receptors (tyrosine phosphorylation),"[2]; PC12 (615) cells, ligand for 2 hours, adenosine 10 μM",not observed
Pituitary adenylate cyclase activating polypeptide [PACAP],Akt activity,"[4]; PC12 cells, PACAP treatment",stimulated
same,Concentration range of the effect upon TrkA receptor activity,"[2]; PC12 (615) cells, 2 hours",low nanomolar concentration range
same,Time required for increase in TrkA activation,"[2]; PC12 (615) cells, PACAP27 1 nM",2 h
